According to ChEMBL document CHEMBL1145989, “Development of a water-soluble matrix metalloproteinase inhibitor as an intra-arterial infusion drug for prevention of restenosis after angioplasty” (J Med Chem, 2003):

What was measured:
[1] = target: Matrix metalloproteinase-9 (Homo sapiens, UniProt P14780); experiment: Inhibition of human Matrix metalloprotease-9 (MMP-9)
[2] = target: Macrophage metalloelastase (Homo sapiens, UniProt P39900); experiment: Inhibition of human Matrix metalloprotease-12 (MMP-12)
Sequence of Macrophage metalloelastase (P39900 whole entry): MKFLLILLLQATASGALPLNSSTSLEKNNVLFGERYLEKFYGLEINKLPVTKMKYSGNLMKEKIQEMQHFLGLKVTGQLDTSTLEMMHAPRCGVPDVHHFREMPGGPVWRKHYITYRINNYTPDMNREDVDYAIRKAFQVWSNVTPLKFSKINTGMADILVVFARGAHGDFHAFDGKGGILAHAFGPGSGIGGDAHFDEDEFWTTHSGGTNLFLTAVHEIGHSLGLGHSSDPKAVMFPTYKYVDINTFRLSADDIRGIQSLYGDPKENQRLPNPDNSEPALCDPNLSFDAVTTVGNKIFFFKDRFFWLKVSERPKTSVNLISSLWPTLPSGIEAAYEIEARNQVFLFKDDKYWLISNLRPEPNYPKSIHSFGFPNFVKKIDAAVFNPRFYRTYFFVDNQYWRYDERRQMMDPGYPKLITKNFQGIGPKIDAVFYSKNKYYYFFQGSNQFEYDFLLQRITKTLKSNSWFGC

[3] = target: 72 kDa type IV collagenase (Homo sapiens, UniProt P08253); experiment: Inhibition of human Matrix metalloprotease-2 (MMP-2)
Sequence of 72 kDa type IV collagenase (P08253 whole entry): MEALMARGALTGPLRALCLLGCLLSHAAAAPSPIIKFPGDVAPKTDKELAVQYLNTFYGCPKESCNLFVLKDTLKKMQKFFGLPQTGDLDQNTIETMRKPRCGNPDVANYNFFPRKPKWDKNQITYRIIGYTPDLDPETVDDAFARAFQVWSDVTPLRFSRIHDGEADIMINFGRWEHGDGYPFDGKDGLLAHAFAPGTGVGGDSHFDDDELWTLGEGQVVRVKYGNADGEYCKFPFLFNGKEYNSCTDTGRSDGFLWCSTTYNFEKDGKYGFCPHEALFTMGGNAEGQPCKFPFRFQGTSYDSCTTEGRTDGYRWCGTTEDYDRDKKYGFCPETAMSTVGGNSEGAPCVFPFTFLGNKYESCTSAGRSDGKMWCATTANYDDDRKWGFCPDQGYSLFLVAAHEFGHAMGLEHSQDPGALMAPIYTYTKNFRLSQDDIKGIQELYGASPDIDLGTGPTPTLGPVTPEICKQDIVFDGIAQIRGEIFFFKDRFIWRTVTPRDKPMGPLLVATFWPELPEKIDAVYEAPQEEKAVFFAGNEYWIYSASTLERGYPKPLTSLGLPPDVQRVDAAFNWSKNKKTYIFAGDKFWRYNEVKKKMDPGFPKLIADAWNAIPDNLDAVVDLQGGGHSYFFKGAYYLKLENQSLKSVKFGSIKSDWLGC

Sequence of Matrix metalloproteinase-9 (P14780 whole entry): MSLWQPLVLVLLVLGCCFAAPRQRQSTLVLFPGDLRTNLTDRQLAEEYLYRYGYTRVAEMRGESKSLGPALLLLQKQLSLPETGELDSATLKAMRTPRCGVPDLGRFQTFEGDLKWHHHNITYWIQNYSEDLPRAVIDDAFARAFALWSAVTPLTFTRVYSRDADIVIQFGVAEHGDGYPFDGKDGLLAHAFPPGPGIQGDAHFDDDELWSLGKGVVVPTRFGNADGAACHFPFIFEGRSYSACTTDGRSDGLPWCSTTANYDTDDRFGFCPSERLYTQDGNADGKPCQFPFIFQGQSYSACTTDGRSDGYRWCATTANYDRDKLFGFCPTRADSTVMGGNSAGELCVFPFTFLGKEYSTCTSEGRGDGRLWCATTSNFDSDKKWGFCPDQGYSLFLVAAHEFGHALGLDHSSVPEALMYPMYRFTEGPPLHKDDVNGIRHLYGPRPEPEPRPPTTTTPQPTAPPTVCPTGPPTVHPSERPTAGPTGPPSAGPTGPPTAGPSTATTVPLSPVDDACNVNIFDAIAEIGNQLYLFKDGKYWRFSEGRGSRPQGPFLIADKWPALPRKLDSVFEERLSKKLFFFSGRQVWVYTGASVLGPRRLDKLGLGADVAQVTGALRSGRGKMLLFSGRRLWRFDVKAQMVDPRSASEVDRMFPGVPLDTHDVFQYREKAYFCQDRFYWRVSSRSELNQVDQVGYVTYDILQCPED

Compound	IC50 [1] [nM]	IC50 [2] [nM]	IC50 [3] [nM]
C[C@@H](C[C@@H](COC(=O)CCC(=O)O)NC(=O)c1ccc(Oc2ccccc2)cc1)C(=O)NO	2.8	2.6	1.1
C[C@@H](C[C@@H](CO)NC(=O)c1ccc(Oc2ccccc2)cc1)C(=O)NO	0.8	3.5	0.65
